Laboratory results reported in PMC7289991, “Population Pharmacokinetics and Limited Sampling Strategy for Therapeutic Drug Monitoring of Polymyxin B in Chinese Patients With Multidrug-Resistant Gram-Negative Bacterial Infections” (Frontiers in Pharmacology, 2020).
Positions of bridges follow the written chain, without caps; N, C: chain ends. Non-standard residues stand in square brackets, D forms with d. Residues, ends and D or L forms follow the SMILES beside them. *: point of attachment. X1 = CC[C@H](C)CCCCC(=O)*; Dab = NCC[C@H](N)C(=O)O

Key:
[1] = Population pharmacokinetic analysis of polymyxin B in Chinese patients (two-compartment model, Phoenix NLME); format: in vivo, human
Protocol: Patients who were ≥ 18 years of age, received intravenous polymyxin B (sulfate; polymyxin B injection, Shanghai First Biochemical Pharmaceutical Co., Ltd., China) for ≥ 72 hours, and were documented MDR Gram-negative bacterial infections were included. Patients with renal replacement therapy were excluded. Demographic characteristics (age, sex, and body weight), polymyxin B therapy, and laboratory data before polymyxin B TDM were collected from electronic medical records, including alanine aminotransferase (ALT), aspartate aminotransferase (AST), glutamyl transpeptidase (GGT), alkaline phosphatase (ALP), urea nitrogen, serum creatinine (Scr), serum uric acid, serum proteins, serum albumin, total bilirubin (TBIL), direct bilirubin (DBIL), and creatinine clearance (CrCL). CrCL was calculated using the Cockcroft-Gault equation with body weight ([Janmahasatian et al., 2005]).
According to the Chinese package insert, the maintenance dose of polymyxin B was 50 to 100 million units ([…]) twice daily. The loading dose was 100 to 150 million units in clinical practice. The recommended infusion time was one hour but could be lengthened as needed. Polymyxin B treatment including dose, infusion time, and duration of therapy depended on the medical teams.
(§1) Blood samples were obtained after 3 days of therapy. On day 4, one blood sample (2 ml, C0h) was collected immediately at pre-dose, and five to seven blood samples (mainly C0.5h, C1h, C1.5h, C2h, C4h, C6h, and C8h) were collected at pre-next dose into EDTA tubes for each patient. To calculate AUC0–12h, C0h was regarded as C12h for those who hid not obtained C0h. All samples were centrifuged at 3,500×g for 10 min. The supernatant was collected and stored at −80°C until analysis.
Plasma concentrations of polymyxin B were determined using liquid chromatography-tandem mass spectrometry (LC-MS/MS) in the hospital laboratory. The method was previously described by our group ([Wang et al., 2020]). […] The upper limit of quantification was extended to 20 µg/ml for polymyxin B1 and 5.0 µg/ml for polymyxin B2 after four-fold dilution. For precision and accuracy, the intra- and inter-day imprecision of polymyxin B1 and B2 was less than 13.93%, and the inaccuracy ranged from −10.87 to 11.13%. Since polymyxin B1 and B2 had similar structures, molecular weight, pharmacological activities, and pharmacokinetic characteristics, the plasma concentration of polymyxin B was summed to derive the total polymyxin B1 and B2 concentrations ([Tam et al., 2011]; [Manchandani et al., 2016a]).
Based on a previously published study ([Avedissian et al., 2019]), the PK parameters were determined by one- and two-compartmental models performed using Phoenix® NLME software (v7.0, Pharsight, Mountain View, CA, USA). Initial PK parameters were estimated by the Naive-pooled model. PK models were estimated by the first-order conditional
where Pi is the PK parameters of the i^th patient, θ is the population PK pharmacokinetic parameters, and ηi is a normally distributed random variable with a mean of 0 and a variance of ω^2. Intra-individual variability (residual error) is described using additive (Cobs = Cpred + ϵ), proportional [Cobs = Cpred × (1+ ϵ)] or mixed (additive + proportional) models, where Cobs and Cpred are the observed and predicted concentrations, and ϵ is an error variable with a mean of 0 and a variance of σ^2. Model assessment criteria included precision of parameter estimates (standard error), goodness-of-fit plots, and likelihood ratio test (−2LL). For the one-compartment model, basic PK parameters were the volume of central compartment distribution (V) and central compartment clearance (Cl). For the two-compartment model, there were two additional parameters as the volume of peripheral compartment distribution (V2) and inter-compartmental clearance (Q). […]

[2] = Observed AUC0-12h at steady state (linear-up-log-down method); format: in vivo; conditions: human, 46 patients, steady state (day 4), intravenous, plasma, LC-MS/MS, mean ± spread
Protocol: as §1
Plasma concentrations of polymyxin B were determined using liquid chromatography-tandem mass spectrometry (LC-MS/MS) in the hospital laboratory. The method was previously described by our group ([Wang et al., 2020]). […] The upper limit of quantification was extended to 20 µg/ml for polymyxin B1 and 5.0 µg/ml for polymyxin B2 after four-fold dilution. For precision and accuracy, the intra- and inter-day imprecision of polymyxin B1 and B2 was less than 13.93%, and the inaccuracy ranged from −10.87 to 11.13%. […]
The AUC0-12h of polymyxin B was calculated by the linear-up-log-down method. […] The observed and predicted AUC0-12h were analyzed using the Pearson correlation coefficient (r). […] The determination coefficient (r^2) evaluated the regression level of the equation. […]

[3] = cited from earlier work
Description: To date, few studies have been conducted on population PK of polymyxin B ([Kwa et al., 2008]; [Sandri et al., 2013]; [Kubin et al., 2018]; [Manchandani et al., 2018]; [Miglis et al., 2018]). To our best knowledge, this study included the largest samples and most covariates from acutely-ill patients, aimed at evaluating the population PK of polymyxin B and identifying potential factors influencing the PK variability. The result indicated a two-compartment model adequately described population PK of polymyxin B in Chinese patients. Although there were studies performed using the one-compartment ... || The impact of clinical variables on population PK models of polymyxin B was always inconsistent, especially the influence of body weight and CrCL on polymyxin B clearance. […] With a low correlation coefficient (Supplementary Figure 1), this study found CrCL was a statistical covariate of polymyxin B clearance (Equ. 6), which was in agr ...

[4] = two-compartment population PK, 46 patients, intravenous, steady state

Compound: CC[C@H](C)CCCCC(=O)N[C@@H](CCN)C(=O)N[C@H](C(=O)N[C@@H](CCN)C(=O)N[C@H]1CCNC(=O)[C@H]([C@@H](C)O)NC(=O)[C@H](CCN)NC(=O)[C@H](CCN)NC(=O)[C@H](CC(C)C)NC(=O)[C@@H](Cc2ccccc2)NC(=O)[C@H](CCN)NC1=O)[C@@H](C)O [polymyxin B, Polymyxin B] (X1-[Dab]T[Dab][Dab][Dab][dF]L[Dab][Dab]T; lactam 4-C)
- dCldCrCL, bootstrap median ([1]; 1,000 bootstrap samples): 0.357
- tvCl, bootstrap median ([1]; 1,000 bootstrap samples): 1.771 L/h
- tvQ, bootstrap median ([1]; 1,000 bootstrap samples): 14.427 L/h
- tvV2, bootstrap median ([1]; 1,000 bootstrap samples): 12.073 L
- tvV, bootstrap median ([1]; 1,000 bootstrap samples): 5.960 L
- tvV, typical value of volume of central compartment distribution (V), final model estimate ([1]; two-compartment population PK, 46 adult patients, 331 plasma samples, intravenous, steady state (day 4), LC-MS/MS, sum of polymyxin B1 and B2): 6.218 L
- tvQ, typical value of inter-compartmental clearance (Q, Cl2), final model estimate [1, 4]: 13.518 L/h
- tvV2, typical value of volume of peripheral compartment distribution (V2), final model estimate [1, 4]: 11.922 L
- AUC(0-t) [2]: 43600 ± 27700 ng·h/mL
- clearance value, renal insufficient group ([3]; CrCL < 80 ml/min, P = 0.06 vs normal function group, ref Thamlikitkul et al. (2017)): 2.0 L/h
- clearance value, normal function group ([3]; CrCL ≥ 80 ml/min, ref Thamlikitkul et al. (2017)): 2.5 L/h
- polymyxin B CL reported previously (range) ([3]; earlier population PK studies, ref not given): 1.87 to 2.5 L/h
- V estimate ([3]; ref Sandri et al. (2013)): 6.35 L
